Results as given in ChEMBL document CHEMBL1201862, “PubChem BioAssay data set” (2004).
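Each compound was tested at five concentrations against cells in 96-well plates for 48 hours. GI50 is the concentration that inhibits growth by half.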 The source made the active and inactive calls. No stated cut-off is given here; in the data, active = GI50 up to about 1.1 µM and inactive = higher.

Tests used:
Experiment in all cases: NCI-60 cell line screen, 48 h
[1] = tested on: 786-0
[2] = tested on: EKVX
[3] = tested on: HCT-116
[4] = tested on: HCT-15
[5] = tested on: K562
[6] = tested on: LOX IMVI
[7] = tested on: MDA-MB-231
[8] = tested on: OVCAR-8
[9] = tested on: SF-268
[10] = tested on: SK-MEL-2
[11] = tested on: SR
[12] = tested on: SW-620
[13] = tested on: HOP-92
[14] = tested on: MDA-N
[15] = tested on: Malme-3M
[16] = tested on: BT-549

| Structure (SMILES) | GI50 [1] | GI50 [2] | GI50 [3] | GI50 [4] | GI50 [5] | GI50 [6] | GI50 [7] | GI50 [8] | GI50 [9] | GI50 [10] | GI50 [11] | GI50 [12] | GI50 [13] | GI50 [14] | GI50 [15] | GI50 [16] |
| --- | --- | --- | --- | --- | --- | --- | --- | --- | --- | --- | --- | --- | --- | --- | --- | --- |
| c1ccc(Cc2cc(-c3ccccc3)[nH]n2)cc1 | 17 µM (inactive) | 10.6 µM (inactive) | 25.9 µM (inactive) | 18.5 µM | 13 µM (inactive) | 15.1 µM (inactive) | 11.5 µM (inactive) | 13.5 µM (inactive) | 22.3 µM (inactive) | 16.5 µM (inactive) | 18.4 µM (inactive) | 14.6 µM (inactive) | – | – | – | – |
| CC(O)(/C=C/c1ccccc1)P(=O)(O)c1ccccc1 (stereo not given) | > 100 µM (inactive) | > 100 µM (inactive) | > 100 µM (inactive) | > 100 µM | > 100 µM (inactive) | > 100 µM (inactive) | – | > 100 µM (inactive) | > 100 µM (inactive) | > 100 µM (inactive) | > 100 µM (inactive) | > 100 µM (inactive) | > 100 µM (inactive) | > 100 µM (inactive) | > 100 µM (inactive) | – |
| CN(C)CCCN1c2ccc([N+](=O)[O-])cc2CCc2cc([N+](=O)[O-])ccc21 | 12.1 µM (inactive) | 14.1 µM (inactive) | 14.4 µM (inactive) | 16.7 µM | 19.4 µM (inactive) | 16.9 µM (inactive) | 15.9 µM (inactive) | 15.5 µM (inactive) | 15.4 µM (inactive) | 20.7 µM (inactive) | – | 15.3 µM (inactive) | 5.26 µM (inactive) | 13.8 µM (inactive) | 10.3 µM (inactive) | – |
| CN(C)Cc1cc(C(=O)/C=C/c2ccc(Cl)c(Cl)c2)cc(CN(C)C)c1O | 1.36 µM (inactive) | 8.36 µM (inactive) | 2.77 µM (inactive) | 2.84 µM | 1.31 µM (inactive) | 0.716 µM (active) | 2.68 µM (inactive) | 1.68 µM (inactive) | 3.05 µM (inactive) | – | – | 1.45 µM (inactive) | 0.598 µM (active) | 3.08 µM (inactive) | 2.88 µM (inactive) | – |
| CC(=O)/C=C/C=C(\C)CC/C=C(\C)CC(C)C | 34 µM (inactive) | 37.3 µM (inactive) | 21.8 µM (inactive) | 16 µM | 21.6 µM (inactive) | 18.3 µM (inactive) | 40.9 µM (inactive) | 23.7 µM (inactive) | 39.7 µM (inactive) | 20 µM (inactive) | 16.1 µM (inactive) | 17.1 µM (inactive) | 0.558 µM (active) | 30.2 µM (inactive) | – | – |
| COC(=O)C1=C2SCc3ccc(cc3)CSC3=C(C(=O)OC)SC(=C(S2)S1)S3 | 96.6 µM (inactive) | – | > 100 µM (inactive) | – | 43.6 µM (inactive) | – | > 100 µM (inactive) | – | – | > 100 µM (inactive) | – | > 100 µM (inactive) | – | 74.6 µM (inactive) | – | – |
| C=CCCCCCCCCC(=O)ON(Cc1ccc(O)c(OC)c1)C(=O)C(F)(F)F | > 100 µM (inactive) | > 100 µM (inactive) | > 100 µM (inactive) | > 100 µM | 75 µM (inactive) | > 100 µM (inactive) | > 100 µM (inactive) | > 100 µM (inactive) | > 100 µM (inactive) | – | 22.9 µM (inactive) | > 100 µM (inactive) | 34.2 µM (inactive) | – | > 100 µM (inactive) | – |
| C=CCOCn1cnc2c(N)ncnc21 | > 100 µM (inactive) | > 100 µM (inactive) | > 100 µM (inactive) | > 100 µM | > 100 µM (inactive) | > 100 µM (inactive) | > 100 µM (inactive) | > 100 µM (inactive) | > 100 µM (inactive) | > 100 µM (inactive) | > 100 µM (inactive) | > 100 µM (inactive) | – | > 100 µM (inactive) | > 100 µM (inactive) | – |
| Cc1cccc2c1C/C(=C\c1cccc(C)c1C(=O)O)C2=O | > 100 µM (inactive) | > 100 µM (inactive) | > 100 µM (inactive) | > 100 µM | > 100 µM (inactive) | > 100 µM (inactive) | – | > 100 µM (inactive) | > 100 µM (inactive) | > 100 µM (inactive) | 54.7 µM (inactive) | > 100 µM (inactive) | > 100 µM (inactive) | – | > 100 µM (inactive) | > 100 µM (inactive) |
